Reference: US20020028809A1 (SUNTORY LIMITED, priority 1999, published 2002)
Read-outs that look alike come from different tables or passages of the source.

What was measured:
[1] = target: T1, α1β1γδ subtype of nicotinic acetylcholine receptors (Rattus norvegicus, UniProt P18916+P25108+P25109+P25110); experiment: Binding assays at α1β1γδ subtype of nicotinic acetylcholine receptors ([3H]-α-bungarotoxin, rat muscle extract); conditions: for remaining activity at 100 µM / remaining activity at 1000 µM: read-out: control % of [3H]-α-Bgt binding
T1 construct: Native receptor, no construct: "Triton X100 (2% w/v) was added
T1 sequence (P25108 21-457): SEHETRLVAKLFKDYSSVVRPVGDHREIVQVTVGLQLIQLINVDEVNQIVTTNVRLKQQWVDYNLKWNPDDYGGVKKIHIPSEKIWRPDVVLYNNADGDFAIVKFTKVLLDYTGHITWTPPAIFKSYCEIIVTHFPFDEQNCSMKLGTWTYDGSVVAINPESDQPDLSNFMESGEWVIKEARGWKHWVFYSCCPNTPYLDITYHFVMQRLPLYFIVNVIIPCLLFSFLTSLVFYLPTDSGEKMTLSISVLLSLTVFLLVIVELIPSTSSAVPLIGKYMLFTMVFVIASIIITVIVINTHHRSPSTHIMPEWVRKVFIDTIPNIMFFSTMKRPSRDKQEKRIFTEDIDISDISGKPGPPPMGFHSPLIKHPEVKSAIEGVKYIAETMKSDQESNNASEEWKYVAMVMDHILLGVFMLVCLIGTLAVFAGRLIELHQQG
T1 sequence (P25110 22-517): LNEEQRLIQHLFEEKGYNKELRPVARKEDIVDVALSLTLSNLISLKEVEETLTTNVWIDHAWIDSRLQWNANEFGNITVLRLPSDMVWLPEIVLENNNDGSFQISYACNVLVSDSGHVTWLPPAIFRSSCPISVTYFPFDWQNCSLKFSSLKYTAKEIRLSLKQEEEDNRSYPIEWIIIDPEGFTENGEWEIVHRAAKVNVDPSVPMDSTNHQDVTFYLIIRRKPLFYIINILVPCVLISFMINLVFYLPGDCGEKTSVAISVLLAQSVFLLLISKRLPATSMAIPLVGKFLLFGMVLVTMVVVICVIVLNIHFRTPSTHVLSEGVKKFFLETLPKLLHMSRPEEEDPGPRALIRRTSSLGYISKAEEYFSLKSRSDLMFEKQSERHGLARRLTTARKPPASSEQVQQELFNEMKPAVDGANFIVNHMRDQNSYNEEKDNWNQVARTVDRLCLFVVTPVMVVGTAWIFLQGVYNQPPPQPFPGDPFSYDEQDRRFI
T1 sequence (P25109 24-501): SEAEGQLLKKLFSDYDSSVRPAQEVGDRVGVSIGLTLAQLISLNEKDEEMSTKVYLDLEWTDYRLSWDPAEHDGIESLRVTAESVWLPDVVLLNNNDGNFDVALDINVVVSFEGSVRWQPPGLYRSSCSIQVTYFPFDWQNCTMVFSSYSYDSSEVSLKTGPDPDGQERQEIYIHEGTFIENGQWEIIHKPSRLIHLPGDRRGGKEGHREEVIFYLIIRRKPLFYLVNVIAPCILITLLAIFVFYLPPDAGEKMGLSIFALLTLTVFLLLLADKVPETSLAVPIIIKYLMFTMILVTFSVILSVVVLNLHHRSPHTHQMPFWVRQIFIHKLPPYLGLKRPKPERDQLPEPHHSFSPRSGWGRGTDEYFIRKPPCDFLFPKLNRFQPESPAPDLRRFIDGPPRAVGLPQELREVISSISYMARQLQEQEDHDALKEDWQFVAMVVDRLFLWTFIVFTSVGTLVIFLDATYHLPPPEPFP
Text: (§1) Methods for evaluating binding capabilities of the compounds at nicotinic acetylcholine receptors are different by subtypes of receptors. Binding capabilities of the compounds at α4β2 nicotinic acetylcholine receptors are examined using rat brain membrane obtained from whole homogenized brain, and determining the inhibiting rate of the compounds against [^3H]-cytisine binding to said brain membrane. Furthermore, the binding capabilities of the compounds at α1β1γδ nicotinic acetylcholine receptors are examined using homogenized rat muscle, and determining the inhibiting rate of the compounds against [^3H]-α-bungarotoxin binding to said muscle homogenate.
Binding Assays at α1β1γδ Subtype of Nicotinic Acetylcholine Receptors
Affinity of the compounds of the present invention to α1βγδ subtype of nicotinic acetylcholine receptors was measured by the following method, which was modified method described by Garcha H. S., Thomas P., Spivak C.
(1) Preparation of Rat Skeletal Muscles Containing α1β1γδ Subtype of Nicotinic Acetylcholine Receptors
The substantially same animals described in the Biological Experiment 1 were used.
Isolation of α1β1γδ subtype of nicotinic acetylcholine receptors was performed as follow. That is, rat posterior skeletal muscles were isolated just after sacrificed by decapitation, washed with ice-cooled saline solution and then frozen at −80° C. with liquid nitrogen and stored till using. After thawing the frozen muscles, tissue was homogenized (40% w/v) with buffer solution [2.5 mM of sodium phosphate buffer (pH:7.2), 90 mM of NaCl, 2 mM of KCl, 1 mM of EDTA, 2 mM of benzamidine, 0.1 mM of benzethonium chloride, […], 0.01% of sodium azide] in Waring blender (Waring blender 34BL97; WARING PRODUCTS DIVISION DYNAMICS CORPORATION OF AMERICA) for 60 seconds. The homogenate were centrifuged under 20,000×G for 60 minutes at 4° C. The supernatant was separated and the resulting pellet was added to the same buffer (1.5 ml/g wet weight), and homogenized under the same conditions. Triton X100 (2% w/v) was added and the mixture was stirred for 3 hours at 4° C. The centrifugation at 100,000×G for 60 minutes at 4° C. yielded the rat muscle extract as supernatant. This was stored at 4° C. for up to 4 weeks, and used for binding assays at receptors.
(2) Experiments of α1β1γδSubtype of Nicotinic Acetylcholine Receptors Binding
Receptors binding experiments were performed as follow. That is, the extract of rat muscle containing 600-900 μg of protein was added to test tubes containing test compounds and incubated for 15 minutes at 37° C. Then, to this mixture was added 1 nM of [^3H]-α-bungarotoxin (α-Bgt) and further incubated for 2 hours. The samples were isolated by vacuum filtration onto Whatman GF/B filters, which were prerinsed with 0.5% polyethylenimine just prior to sample filtration, using Brandel multi manifold cell harvester. The filters were rapidly rinsed with washing solution (10 mM of KH2PO4, 150 mM of NaCl, pH 7.2, room temperature) (5×1 ml). The filters were counted in 3 ml of clearsol I (Nacalai Tesque Inc.). Determination of nonspecific binding was incubated in the presence of 1 μM α-Bgt.
In the receptor binding experiments, said buffer solution was added for adjusting the final concentration of BSA to be 0.05%.
Analyses of the experimental results were conducted by the same way as described in the Biological Experiment 1.

[2] = target: T2, α4β2 subtype of nicotinic acetylcholine receptors (Rattus norvegicus, UniProt P09483+P12390); experiment: Binding assays at α4β2 subtype of nicotinic acetylcholine receptors ([3H]-cytisine, rat brain membrane)
T2 construct: examined using rat brain membrane obtained from whole homogenized brain; from tissue; host or cells: whole brain of Fischer-344 male rats, membrane pellet
T2 sequence (P09483 31-630): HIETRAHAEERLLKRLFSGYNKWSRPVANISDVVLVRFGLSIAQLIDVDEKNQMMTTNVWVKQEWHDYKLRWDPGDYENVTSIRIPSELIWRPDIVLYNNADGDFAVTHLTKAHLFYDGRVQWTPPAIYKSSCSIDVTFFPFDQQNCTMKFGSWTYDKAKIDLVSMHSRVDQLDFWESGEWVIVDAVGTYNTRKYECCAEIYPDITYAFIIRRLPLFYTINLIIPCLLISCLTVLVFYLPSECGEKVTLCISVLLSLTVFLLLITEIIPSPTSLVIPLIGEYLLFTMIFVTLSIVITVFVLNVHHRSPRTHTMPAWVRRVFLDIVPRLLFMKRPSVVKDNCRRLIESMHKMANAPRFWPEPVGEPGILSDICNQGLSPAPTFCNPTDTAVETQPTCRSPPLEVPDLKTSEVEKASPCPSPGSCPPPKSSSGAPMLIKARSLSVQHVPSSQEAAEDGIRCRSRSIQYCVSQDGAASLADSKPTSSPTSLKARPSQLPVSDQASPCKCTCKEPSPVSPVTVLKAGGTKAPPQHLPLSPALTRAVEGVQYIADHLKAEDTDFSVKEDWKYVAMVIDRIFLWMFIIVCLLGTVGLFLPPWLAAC
T2 sequence (P12390 25-500): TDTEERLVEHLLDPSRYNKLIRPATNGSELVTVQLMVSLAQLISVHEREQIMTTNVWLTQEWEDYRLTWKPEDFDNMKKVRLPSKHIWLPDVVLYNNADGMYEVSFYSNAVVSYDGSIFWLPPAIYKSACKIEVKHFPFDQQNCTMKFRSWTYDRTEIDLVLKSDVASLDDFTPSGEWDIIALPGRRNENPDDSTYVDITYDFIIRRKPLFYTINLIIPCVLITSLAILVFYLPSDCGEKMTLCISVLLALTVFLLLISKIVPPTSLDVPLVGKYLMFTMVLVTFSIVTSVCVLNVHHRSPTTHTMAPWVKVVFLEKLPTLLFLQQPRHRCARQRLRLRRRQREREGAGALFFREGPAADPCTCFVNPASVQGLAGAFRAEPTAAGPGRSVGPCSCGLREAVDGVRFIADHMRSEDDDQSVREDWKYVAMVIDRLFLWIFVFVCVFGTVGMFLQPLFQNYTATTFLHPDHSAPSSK
Text: as §1
Binding assays at α4β2 Subtype of Nicotinic Acetylcholine Receptors
(1) Preparation of Rat Brain Membrane Containing α4β2 Subtype of Nicotinic Acetylcholine Receptors
Rats were housed in the breeding cage controlled of the room temperature at 23±1° C., and the humidity of 55±5% for 1 to 4 weeks. Rats (3 to 4 rats per a cage) were housed with lights on for 12 hours daily (from 7:00 to 19:00), and allowed free access to food and water.
Preparation of rat brain membrane containing α4β2 subtype of nicotinic acetylcholine receptors was performed as follow. That is, rat brains were isolated just after sacrificed by decapitation, washed with ice-cooled saline solution and then frozen at −80° C. with liquid nitrogen and stored till using. After thawing the frozen brain, the brain was homogenized in 10 volumes of ice-cooled buffer solution (50 mM of Tris-HCl, 120 mM of NaCl, 5 mM of KCl, 1 mM of MgCl2, 2mM of CaCl2; pH 7.4; 4° C.) using homogenizer (HG30, Hitachi Kohki Ltd.) for 30 seconds, and the homogenate were centrifuged under 1,000×G for 10 minutes at 4° C. The resulting supernatant was separated and the pellet was homogenized again with half volume of aforementioned prior buffer solution and centrifuged under the same conditions. Combined supernatant was further centrifuged under 40,000×G for 20 minutes at 4° C. The pellet was suspended in buffer solution and used for binding assays at receptors.
(2) Experiments of α4β2 Subtype of Nicotinic Acetylcholine Receptors Binding
Suspensions of membrane pellets containing 400-600 μg of protein were added to test tubes containing test compounds and [^3H]-cytisine (2 nM) in a final volume of 200 μl and incubated for 75 minutes in ice-cooled bath. The samples were isolated by vacuum filtration onto Whatman GF/B filters, which were prerinsed with 0.5% polyethylenimine just prior to sample filtration, using Brandel multi manifold cell harvester. The filters were rapidly washed with buffer solution (3×1 ml). The filters were counted in 3 ml of clearsol I (Nacalai Tesque Inc.).
Analyses of the experimental results were conducted using the Accufit Competition Program (Beckman Ltd.).

[3] = rat brain membrane, [3H]-cytisine (2 nM), read-out: Affinities for receptors Ki α4β2

Structure (SMILES) | Ki [1] | Ki [2] | remaining activity at 100 µM [1] | remaining activity at 1000 µM [1] | Ki [2, 3]
CN1CCCC1c1cccnc1 (single isomer, unassigned; (-)) [Nicotine, (−)-nicotine, reference compound] | 182000 nM |  |  |  | 
Cc1csc(=N)n1Cc1ccc(Cl)nc1 [Compound 2, 3-(6-chloro-3-pyridyl)methyl-2-imino-4-methyl-2,3-dihydrothiazole] | 12800 nM | 3.5 nM |  |  | 
Cc1cn(Cc2ccc(Cl)nc2)c(=N)s1 [Compound 3, 3-(6-chloro-3-pyridyl)methyl-2-imino-5-methyl-2,3-dihydrothiazole] |  | 5.8 nM | 69% | 28% | 
N=C1SCCN1Cc1cccnc1 [Compound 4, 2-imino-3-(3-pyridyl)methylthiazolidine] |  | 7.5 nM | 6% | 1% | 
N=c1ncccn1Cc1ccc(Cl)nc1 [Compound 10, 1-(6-chloro-3-pyridyl)methyl-2-imino-1,2-dihydropyrimidine] | 347000 nM | 8.7 nM |  |  | 
N=C1CCCCN1Cc1ccc(Cl)nc1 [Compound 15, 1-(6-chloro-3-pyridyl)methyl-2-iminopiperidine] |  |  | 21% | 4% | 4.8 nM
N=C1SCCCN1Cc1ccc(Cl)nc1 [Compound 17, 3-(6-chloro-3-pyridyl)methyl-2-imino-3,4,5,6-tetrahydro-2H-1,3-thiazine] |  |  | 68% | 23% | 520 nM
Cc1csc(=N)n1Cc1ccc(F)nc1 [Compound 18, 3-(6-fluoro-3-pyridyl)methyl-2-imino-4-methyl-2,3-dihydrothiazole] | 5800 nM | 10.8 nM |  |  | 
Cc1sc(=N)n(Cc2ccc(Cl)nc2)c1C [Compound 20, 3-(6-chloro-3-pyridyl)methyl-2-imino-4,5-dimethyl-2,3-dihydrothiazole] |  | 7.56 nM | 96% | 45% | 
CCc1csc(=N)n1Cc1ccc(Cl)nc1 [Compound 21, 3-(6-chloro-3-pyridyl)methyl-4-ethyl-2-imino-2,3-dihydrothiazole] |  | 21.7 nM | 57% | 19% | 
N=c1ccc(Cl)cn1Cc1ccc(Cl)nc1 [Compound 22, 5-chloro-1-(6-chloro-3-pyridyl)methyl-2-imino-1,2-dihydropyridine] |  | 33.7 nM | 75% | 28% | 
Cc1cccn(Cc2ccc(Cl)nc2)c1=N [Compound 23, 1-(6-chloro-3-pyridyl)methyl-2-imino-3-methyl-1,2-dihydropyridine] |  | 221 nM | 89% | 52% | 
Cc1ccc(=N)n(Cc2ccc(Cl)nc2)c1 [Compound 24, 1-(6-chloro-3-pyridyl)methyl-2-imino-5-methyl-1,2-dihydropyridine] |  | 48.6 nM | 80% | 36% | 
Cc1ccn(Cc2ccc(Cl)nc2)c(=N)c1 [Compound 25, 1-(6-chloro-3-pyridyl)methyl-2-imino-4-methyl-1,2-dihydropyridine] |  | 171 nM | 90% | 58% | 
N=c1ccccn1Cc1cccnc1 [Compound 26, 2-imino-1-(3-pyridyl)methyl-1,2-dihydropyridine] | 41600 nM | 28.2 nM |  |  | 
CC1CSC(=N)N1Cc1ccc(Cl)nc1 (centres unmarked) [Compound 27, 3-(6-chloro-3-pyridyl)methyl-2-imino-4-methylthiazolidine] | 16300 nM | 53.1 nM |  |  | 
Cc1csc(=N)n1Cc1cncc(Br)c1 [Compound 30, 3-(5-bromo-3-pyridyl)methyl-2-imino-4-methyl-2,3-dihydrothiazole] | 22500 nM | 26.7 nM |  |  | 
Cc1ccc(CN2CCSC2=N)cn1 [Compound 32, 2-imino-3-(6-methyl-3-pyridyl)methylthiazolidine] | 14600 nM | 10 nM |  |  | 
Cc1cc(CN2CCSC2=N)on1 [Compound 35, 2-imino-3-(3-methyl-5-isoxazolyl)methylthiazolidine] |  | 41 nM | 12% | -3% | 
Cc1cc(Cn2c(C)csc2=N)on1 [Compound 36, 2-imino-4-methyl-3-(3-methyl-5-isoxazolyl)methyl-2,3-dihydrothiazole] |  | 263 nM | 10% | 2% | 
Cc1csc(=N)n1Cc1cnc(Cl)s1 [Compound 37, 3-(2-chloro-5-thiazolyl)methyl-2-imino-4-methyl-2,3-dihydrothiazole] | 22900 nM | 16.4 nM |  |  | 
Cc1csc(=N)n1Cc1cnc(Cl)c(Cl)c1 [Compound 38, 3-(5,6-dichloro-3-pyridyl)methyl-2-imino-4-methyl-2,3-dihydrothiazole] | 65200 nM | 10.6 nM |  |  | 
Cc1ccc(Cn2c(C)csc2=N)cn1 [Compound 39, 2-imino-4-methyl-3-(6-methyl-3-pyridyl)methyl-2,3-dihydrothiazole] | 10800 nM | 30.5 nM |  |  | 
N=c1sc(-c2ccccc2)cn1Cc1ccc(Cl)nc1 [Compound 40, 3-(6-chloro-3-pyridyl)methyl-2-imino-5-phenyl-2,3-dihydrothiazole] |  | 355 nM | 71% | 35% | 
N=c1scc(-c2ccccc2)n1Cc1ccc(Cl)nc1 [Compound 41, 3-(6-chloro-3-pyridyl)methyl-2-imino-4-phenyl-2,3-dihydrothiazole] |  | 32 nM | 79% | 30% | 
N=c1scc(-c2ccc(Cl)cc2)n1Cc1ccc(Cl)nc1 [Compound 42, 4-(4-chlorophenyl)-3-(6-chloro-3-pyridyl)methyl-2-imino-2,3-dihydrothiazole] |  | 290 nM | 75% | 35% | 
N=C1SCC(c2ccccc2)N1Cc1ccc(Cl)nc1 (centres unmarked) [Compound 43, 3-(6-chloro-3-pyridyl)methyl-2-imino-4-phenylthiazolidine] | 19900 nM | 37.1 nM |  |  | 
N=c1ccc(-c2ccccc2)nn1Cc1cccnc1 [Compound 45, 3-imino-6-phenyl-2-(3-pyridyl)methyl-2,3-dihydropyridazine] |  | 143 nM | 18% | 6% | 
